The values below come from PubChem BioAssay AID330 (DTP/NCI, 2004).

Where “and” joins values, the source holds several entries; their conditions need not be identical. Identical values can stand only once. Toxic doses and inconclusive results are not listed.

In the assay the test system is P388 leukemia ip, CD2F1 mice, survival T/C. As to the kind of experiment: NCI In Vivo Anticancer Drug Screen. Data for tumor model P388 Leukemia (intraperitoneal) in CD2F1 (CDF1) mice. To be noted: endpoint: median survival time, higher = longer survival. The method in brief:
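Mice carrying the transplanted tumor received test compound or vehicle. Survival was recorded in each group, and the value is the treated-group measurement divided by that of the vehicle-treated control group.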

The mark [1] stands for this setting: dose: 100.0 mg/kg/injection, schedule: Q01DX009 (ip), vehicle: saline with Tween-80.
Setting [2] is: dose: 200.0 mg/kg/injection, schedule: Q01DX009 (ip), vehicle: saline with Tween-80.
Where [3] appears, read: dose: 400.0 mg/kg/injection, schedule: Q01DX009 (ip), vehicle: saline with Tween-80.
[4] abbreviates: dose: 60.0 mg/kg/injection, schedule: Q01DX005 (ip), vehicle: Klucel (hydroxypropylcellulose) (HPC).
Setting [5] is: dose: 60.0 mg/kg/injection, schedule: Q01DX005 (ip), vehicle: saline.

For `CCCCCCCCCCCCCCCCCC(=O)NC(Cc1ccc(N(CCCl)CCCl)cc1)C(=O)O` (centres undefined), the T/C was 159 % of control (dose: 1.88 mg/kg/injection, schedule: Q01DX009 (ip), vehicle: saline); 172 % of control (dose: 3.75 mg/kg/injection, schedule: Q01DX009 (ip), vehicle: saline); 155 % of control (dose: 3.75 mg/kg/injection, schedule: Q03HX008 (ip), vehicle: saline); 236 % of control (dose: 7.5 mg/kg/injection, schedule: Q01DX009 (ip), vehicle: saline); 190 % of control (dose: 7.5 mg/kg/injection, schedule: Q03HX008 (ip), vehicle: saline); 277 % of control (dose: 15.0 mg/kg/injection, schedule: Q01DX009 (ip), vehicle: saline). Moreover, the T/C (dose: 15.0 mg/kg/injection, schedule: Q03HX008 (ip), vehicle: saline) is 225 % of control.
In the case of `N#CC1C(=O)NC(=O)C(C#N)C1c1ccc(Cl)c(Cl)c1` (centres undefined), the T/C (dose: 50.0 mg/kg/injection, schedule: Q01DX009 (ip), vehicle: Klucel (hydroxypropylcellulose) (HPC)) is 99 % of control; the T/C (dose: 100.0 mg/kg/injection, schedule: Q01DX009 (ip), vehicle: Klucel (hydroxypropylcellulose) (HPC)) is 100 % of control; the T/C (dose: 200.0 mg/kg/injection, schedule: Q01DX009 (ip), vehicle: Klucel (hydroxypropylcellulose) (HPC)) was 102 % of control.
On to `CSC(=S)/N=c1\ccc(C)cn1C`, for which the T/C is 100 % of control (dose: 12.5 mg/kg/injection, schedule: Q04DX002 (ip), vehicle: saline with Tween-80); 100 % of control (dose: 25.0 mg/kg/injection, schedule: Q04DX002 (ip), vehicle: saline with Tween-80); 99 % of control (dose: 50.0 mg/kg/injection, schedule: Q04DX002 (ip), vehicle: saline with Tween-80).
As for `O=C1CN(c2ccccc2)C(=O)CN1Nc1ccccc1`, the T/C was 93 % of control (dose: 50.0 mg/kg/injection, schedule: Q01DX009 (ip), vehicle: saline with Tween-80) and 93 % of control under setting [1].
Turning to `O=C1OC2(CCCCC2)OC(=O)C1=Cc1ccc([N+](=O)[O-])s1`, the T/C is, setting by setting: (dose: 100.0 mg/kg/injection, schedule: Q04DX003 (ip), vehicle: saline with Tween-80) 114 % of control; (dose: 200.0 mg/kg/injection, schedule: Q04DX003 (ip), vehicle: saline with Tween-80) 105 % of control.
Turning to `C=C1COC(O)(C(OC)C(O)CC2CC(=O)NC(=O)C2)C1C` (centres undefined), the T/C (dose: 0.01 mg/kg/injection, schedule: Q01DX009 (ip), vehicle: water) is 105 % of control; the T/C (dose: 0.03 mg/kg/injection, schedule: Q01DX009 (ip), vehicle: water) was 104 % of control; the T/C (dose: 0.06 mg/kg/injection, schedule: Q01DX009 (ip), vehicle: water) was 111 % of control; the T/C (dose: 0.12 mg/kg/injection, schedule: Q01DX009 (ip), vehicle: water) is 117 % of control.
With `CC(C(=O)O)c1ccc2c(c1)[nH]c1ccc(Cl)cc12` (centres undefined), the T/C (dose: 6.25 mg/kg/injection, schedule: Q01DX009 (ip), vehicle: saline with Tween-80) is 106 % of control; the T/C (dose: 12.5 mg/kg/injection, schedule: Q01DX009 (ip), vehicle: saline with Tween-80) is 106 % of control; the T/C (dose: 25.0 mg/kg/injection, schedule: Q01DX009 (ip), vehicle: saline with Tween-80) is 105 % of control.
`COC(=O)CCCCCC(O)C1CCC2OC(=O)CC21C` (centres undefined): the T/C is 118 % of control under setting [1], 100 % of control under setting [2] and 100 % of control under setting [3].
For `CCCCCN(C)C12CN3CN(CN(C3)C1)C2`, the T/C (dose: 50.0 mg/kg/injection, schedule: Q01DX009 (ip), vehicle: saline) was 103 % of control; the T/C (dose: 100.0 mg/kg/injection, schedule: Q01DX009 (ip), vehicle: saline) is 103 % of control; the T/C (dose: 200.0 mg/kg/injection, schedule: Q01DX009 (ip), vehicle: saline) is 99 % of control.
On to `COc1cc(CC2COCC2Cc2ccc3c(c2)OCO3)cc(OC)c1OC` (centres undefined), for which the T/C is, setting by setting: (dose: 1.25 mg/kg/injection, schedule: Q04DX002 (ip), vehicle: acetone) 101 % of control and 103 % of control; (dose: 2.5 mg/kg/injection, schedule: Q04DX002 (ip), vehicle: acetone) 101 % of control and 96 % of control and 104 % of control; (dose: 5.0 mg/kg/injection, schedule: Q04DX002 (ip), vehicle: acetone) 93 % of control and 96 % of control and 103 % of control.
Consider `CC1CC(=O)c2c(CO)nn(CCCO)c2C1` (centres undefined), for which the T/C was 101 % of control (dose: 15.0 mg/kg/injection, schedule: Q01DX005 (ip), vehicle: Klucel (hydroxypropylcellulose) (HPC)); 102 % of control (dose: 30.0 mg/kg/injection, schedule: Q01DX005 (ip), vehicle: Klucel (hydroxypropylcellulose) (HPC)); 101 % of control under setting [4]; 101 % of control under setting [5].
On to `c1ccc(C23CCCCC2O3)cc1` (centres undefined), for which the T/C was 102 % of control under setting [4]; 107 % of control (dose: 120.0 mg/kg/injection, schedule: Q01DX005 (ip), vehicle: Klucel (hydroxypropylcellulose) (HPC)); 111 % of control (dose: 240.0 mg/kg/injection, schedule: Q01DX005 (ip), vehicle: Klucel (hydroxypropylcellulose) (HPC)).
In the case of `Cn1ccnc1C[Si](C)(C)C`, the T/C is, setting by setting: (dose: 45.5 mg/kg/injection, schedule: Q01DX005 (ip), vehicle: saline with Tween-80) 99 % of control; (dose: 91.0 mg/kg/injection, schedule: Q01DX005 (ip), vehicle: saline with Tween-80) 107 % of control; (dose: 182.0 mg/kg/injection, schedule: Q01DX005 (ip), vehicle: saline with Tween-80) 108 % of control.
With `O=C(O)C1CCC2(CC1)SCC1(CS2)CSC2(CCC(C(=O)O)CC2)SC1` (centres undefined), the T/C (dose: 7.5 mg/kg/injection, schedule: Q01DX009 (ip), vehicle: saline with Tween-80) is 104 % of control; the T/C (dose: 15.0 mg/kg/injection, schedule: Q01DX009 (ip), vehicle: saline with Tween-80) was 99 % of control; the T/C (dose: 30.0 mg/kg/injection, schedule: Q01DX009 (ip), vehicle: saline with Tween-80) is 107 % of control.
On to `CC1(C)OC2(C=CC(C)([N+](=O)[O-])C=C2)OC1=O` (centres undefined), for which the T/C runs as follows: (dose: 50.0 mg/kg/injection, schedule: Q01DX005 (ip), vehicle: Klucel (hydroxypropylcellulose) (HPC)) 101 % of control; (dose: 100.0 mg/kg/injection, schedule: Q01DX005 (ip), vehicle: Klucel (hydroxypropylcellulose) (HPC)) 94 % of control; (dose: 200.0 mg/kg/injection, schedule: Q01DX005 (ip), vehicle: Klucel (hydroxypropylcellulose) (HPC)) 100 % of control.
On to `O=CC1C2C=CCC12` (centres undefined), for which the T/C is 113 % of control under setting [1], 118 % of control under setting [2] and 113 % of control under setting [3].
For `CC(C)=CCCC(=O)C(c1nc2n(c1O)C(=N)N=N2)c1nc2n(c1O)C(=N)N=N2` (centres undefined), the T/C is, setting by setting: under setting [5], 95 % of control; (dose: 120.0 mg/kg/injection, schedule: Q01DX005 (ip), vehicle: saline) 97 % of control; (dose: 240.0 mg/kg/injection, schedule: Q01DX005 (ip), vehicle: saline) 97 % of control.
Regarding `CCC(C)C1NC(=O)C(NC(=O)c2c3nc4c(C(=O)NC5C(=O)NC(C(C)CC)C(=O)N6CCCC6C(=O)N(C)CC(=O)N(C)C(C(C)C)C(=O)OC5C)cc(N)c(C)c4oc-3c(C)c(=O)c2N)C(C)OC(=O)C(C(C)C)N(C)C(=O)CN(C)C(=O)C2CCCN2C1=O` (centres undefined), the T/C was 247 % of control (dose: 0.1 mg/kg/injection, schedule: Q01DX009 (ip), vehicle: Klucel (hydroxypropylcellulose) (HPC)); 230 % of control (dose: 0.2 mg/kg/injection, schedule: Q01DX009 (ip), vehicle: Klucel (hydroxypropylcellulose) (HPC)); 152 % of control (dose: 100.0 micrograms/kg/injection, schedule: Q01DX009 (ip), vehicle: water); 166 % of control (dose: 150.0 micrograms/kg/injection, schedule: Q01DX009 (ip), vehicle: water); 177 % of control (dose: 225.0 micrograms/kg/injection, schedule: Q01DX009 (ip), vehicle: water).
Regarding `CCOC(=O)c1cn(C2OC(CO)C(O)C2O)c(=O)nc1N` (centres undefined), the T/C was 99 % of control (dose: 50.0 mg/kg/injection, schedule: Q04DX003 (ip), vehicle: saline); 100 % of control (dose: 100.0 mg/kg/injection, schedule: Q04DX003 (ip), vehicle: saline); 100 % of control (dose: 200.0 mg/kg/injection, schedule: Q04DX003 (ip), vehicle: saline); 102 % of control (dose: 400.0 mg/kg/injection, schedule: Q04DX003 (ip), vehicle: saline).
